Results reported in ChEMBL document CHEMBL1201862, “PubChem BioAssay data set” (2004).
The source made the active and inactive calls.

Tests used:
[1] = biological target: T1, Low molecular weight phosphotyrosine protein phosphatase (Homo sapiens, UniProt P24666); assay type: functional; conditions: read-out: IC50_Mean;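 also: Dose-response confirmation assay measuring inhibition of LMPTP enzyme activity by fluorescence intensity read-out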
T1 sequence (P24666 whole entry): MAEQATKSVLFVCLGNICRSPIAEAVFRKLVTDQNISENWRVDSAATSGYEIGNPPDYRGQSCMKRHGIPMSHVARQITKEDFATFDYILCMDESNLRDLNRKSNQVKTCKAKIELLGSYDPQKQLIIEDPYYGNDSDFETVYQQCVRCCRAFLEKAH

[2] = inhibitors of HIV Env-driven cell fusion, dose response, cherry-pick (AID 652057); assay type: functional, cell-based
[3] = CEM21 lymphoblast cell cytotoxicity, dose response, cytotoxicity control for viral fusion inhibitor project, CellTiter-Glo luminescence, cherry-picked (AID 652042); assay type: functional, cell-based;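 also: potency for signal decrease meaning cytotoxicity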
[4] = ZM109 Env clade C HIV-1 fusion inhibitors, dose response, HeLa effector, CEM target cells, luciferase, cherry-pick (AID 652058); assay type: functional, cell-based
[5] = off-target signal loss in HeLa-CEM21 co-culture – HeLa F-luc CTL cells, cherry-picked, counter-screen for HIV-1 Env fusion inhibitor project, dose response (AID 652040); assay type: functional, cell-based;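 also: potency for signal decrease marking cytotoxic or nonspecific inhibition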
[6] = inhibitors of clade B AD8 Env fusion, dose response, cell-based, cherry-pick (AID 652062); assay type: functional;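 also: luciferase signal from cell-cell fusion driven by HIV-1 clade B AD8 Env; potency is for inhibitors of fusion seen as a drop in luminescence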
[7] = biological target: T2, Apoptotic protease-activating factor 1 (Homo sapiens, UniProt O14727); experiment: SAR analysis of small molecule Activators of Apaf-1 in a Fluorescent assay.; assay type: functional; conditions: read-out: EC50_Mean;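 also: caspase-3 cleavage of fluorogenic Rh110 DEVD substrate downstream of apoptosome activation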
T2 sequence (O14727 whole entry): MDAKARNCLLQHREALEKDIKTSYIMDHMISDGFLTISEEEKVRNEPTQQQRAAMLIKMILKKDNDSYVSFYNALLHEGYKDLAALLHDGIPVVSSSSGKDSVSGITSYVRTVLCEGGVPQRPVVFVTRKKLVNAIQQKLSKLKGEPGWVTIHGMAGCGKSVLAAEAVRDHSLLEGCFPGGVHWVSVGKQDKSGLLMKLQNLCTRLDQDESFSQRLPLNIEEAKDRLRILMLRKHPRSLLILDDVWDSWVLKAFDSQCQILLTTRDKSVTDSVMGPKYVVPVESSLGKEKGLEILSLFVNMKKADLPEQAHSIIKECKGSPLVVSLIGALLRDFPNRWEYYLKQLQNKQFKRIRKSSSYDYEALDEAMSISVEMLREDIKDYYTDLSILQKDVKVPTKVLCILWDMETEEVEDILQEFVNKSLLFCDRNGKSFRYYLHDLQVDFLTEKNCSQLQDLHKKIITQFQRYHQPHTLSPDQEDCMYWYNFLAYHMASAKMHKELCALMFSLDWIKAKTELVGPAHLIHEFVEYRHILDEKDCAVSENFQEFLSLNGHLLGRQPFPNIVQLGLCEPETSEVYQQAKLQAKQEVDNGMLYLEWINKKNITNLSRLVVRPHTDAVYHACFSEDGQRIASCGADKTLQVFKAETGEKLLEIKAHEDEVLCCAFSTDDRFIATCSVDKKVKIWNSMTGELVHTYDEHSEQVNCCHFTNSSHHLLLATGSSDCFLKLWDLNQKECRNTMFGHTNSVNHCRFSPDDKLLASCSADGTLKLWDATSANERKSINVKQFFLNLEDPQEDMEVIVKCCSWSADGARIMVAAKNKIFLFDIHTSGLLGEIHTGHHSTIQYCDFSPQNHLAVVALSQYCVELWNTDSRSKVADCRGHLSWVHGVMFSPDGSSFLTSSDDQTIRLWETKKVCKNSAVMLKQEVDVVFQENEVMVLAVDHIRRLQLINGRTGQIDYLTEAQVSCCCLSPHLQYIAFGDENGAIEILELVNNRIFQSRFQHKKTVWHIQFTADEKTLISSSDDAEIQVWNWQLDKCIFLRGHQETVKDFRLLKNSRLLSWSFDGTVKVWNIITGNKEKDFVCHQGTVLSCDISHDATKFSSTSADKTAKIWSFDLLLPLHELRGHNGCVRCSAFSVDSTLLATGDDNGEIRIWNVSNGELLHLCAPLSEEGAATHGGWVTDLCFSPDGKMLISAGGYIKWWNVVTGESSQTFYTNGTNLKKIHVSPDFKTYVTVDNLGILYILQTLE

[8] = NIH-3T3 fibroblast cytotoxicity, dose response, cytotoxicity control, cell-based, fluorescence, Alamar Blue, secondary assay (AID 2327); assay type: functional;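 also: NIH-3T3 mouse fibroblasts cultured with fluconazole at 8 µg/mL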
[9] = C. albicans growth with fluconazole, confirmation, fluorescence, retest (AID 2467); assay type: functional, cell-based
[10] = biological target: T3, Serine/threonine-protein phosphatase (Candida dubliniensis (strain CD36 / CBS 7987 / NCPF 3949 / NRRLY-17841) (Yeast), UniProt B9W6M3); experiment: calcineurin pathway inhibitors in yeast reporter, dose response, S. cerevisiae, CDRE-lacZ, luminescence, secondary (AID 2388); assay type: functional, cell-based;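 also: yeast reporter cells carrying a calcineurin-responsive lacZ construct stimulated with calcium chloride; luminescent beta-galactosidase reporter signal in whole cells rather than isolated phosphatase activity; potency for inhibition where a drop in reporter signal means calcineurin blockade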
T3 sequence (B9W6M3 whole entry): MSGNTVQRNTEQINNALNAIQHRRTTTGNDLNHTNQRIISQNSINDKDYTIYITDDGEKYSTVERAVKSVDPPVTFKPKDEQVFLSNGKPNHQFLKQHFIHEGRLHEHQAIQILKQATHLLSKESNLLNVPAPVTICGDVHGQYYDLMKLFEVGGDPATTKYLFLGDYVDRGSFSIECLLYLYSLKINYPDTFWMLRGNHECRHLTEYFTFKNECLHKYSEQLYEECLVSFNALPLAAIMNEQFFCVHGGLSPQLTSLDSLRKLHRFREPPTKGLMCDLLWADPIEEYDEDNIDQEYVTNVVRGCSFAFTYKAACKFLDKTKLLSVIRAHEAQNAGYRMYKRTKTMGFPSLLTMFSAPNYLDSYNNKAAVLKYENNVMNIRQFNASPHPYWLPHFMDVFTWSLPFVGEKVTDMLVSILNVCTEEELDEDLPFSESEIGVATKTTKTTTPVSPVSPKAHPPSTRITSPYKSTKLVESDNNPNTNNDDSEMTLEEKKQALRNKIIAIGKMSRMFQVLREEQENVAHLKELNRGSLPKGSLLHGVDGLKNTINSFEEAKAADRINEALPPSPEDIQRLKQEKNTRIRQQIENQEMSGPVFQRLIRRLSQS

[11] = biological target: ATP-dependent molecular chaperone HSP82 (Candida albicans (strain WO-1) (Yeast), UniProt C4YTQ8); experiment: loss of DOC-induced GRE-beta-galactosidase reporter signal, dose response, Hsp90 inhibitor project, S. cerevisiae, luminescence (AID 2400); assay type: functional, cell-based;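 also: beta-galactosidase luminescence from glucocorticoid response element reporter as proxy for Hsp90 function; inhibitor potency where signal loss means Hsp90 inhibition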
Chain of ATP-dependent molecular chaperone HSP82 (C4YTQ8 whole entry): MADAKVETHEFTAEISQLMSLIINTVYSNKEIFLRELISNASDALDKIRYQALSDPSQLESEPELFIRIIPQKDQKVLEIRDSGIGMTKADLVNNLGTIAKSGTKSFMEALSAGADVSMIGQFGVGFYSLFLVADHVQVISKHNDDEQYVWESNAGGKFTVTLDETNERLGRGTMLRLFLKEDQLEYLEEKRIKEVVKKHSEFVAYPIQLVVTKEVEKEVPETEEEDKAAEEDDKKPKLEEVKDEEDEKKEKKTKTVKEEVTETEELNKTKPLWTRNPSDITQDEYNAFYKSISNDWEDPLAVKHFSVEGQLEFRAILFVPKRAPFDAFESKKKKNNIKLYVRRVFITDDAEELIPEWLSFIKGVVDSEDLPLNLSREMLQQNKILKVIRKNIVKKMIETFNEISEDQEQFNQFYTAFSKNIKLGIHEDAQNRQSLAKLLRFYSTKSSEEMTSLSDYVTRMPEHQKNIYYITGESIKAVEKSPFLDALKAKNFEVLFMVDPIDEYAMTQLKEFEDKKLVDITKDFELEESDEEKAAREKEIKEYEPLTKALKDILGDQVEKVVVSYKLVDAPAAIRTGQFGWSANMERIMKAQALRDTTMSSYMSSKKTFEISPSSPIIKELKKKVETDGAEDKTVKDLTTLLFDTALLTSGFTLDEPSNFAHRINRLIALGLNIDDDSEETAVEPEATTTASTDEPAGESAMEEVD

[12] = non-specific cell cytotoxicity, dose response, cytotoxicity control for PAX8 inhibitor project, plate reader, dry powder samples (AID 743021); assay type: functional, cell-based

O=C(NCCN1CCCC1)c1ccc(Cn2c(=S)[nH]c3cc4c(cc3c2=O)OCO4)cc1
IC50 [1]: 27.2 µM (inactive)

O=C(c1cccc(C(F)(F)F)c1)N1CCc2c([nH]c3ccccc23)C1C(F)(F)F (stereo not drawn)
AC50 [2]: 5.55 µM (active) | AC50 [3]: 50.8 µM (active) | AC50 [4]: 0.66 µM (active) | AC50 [5]: 1.88 µM (active) | AC50 [6]: 1.19 µM (active)

CCOC(=O)C1(C)Oc2ccccc2NC1=O (stereo not drawn)
EC50 [7]: > 100 µM (inactive)

O=C(Nc1nnc(-c2ccco2)o1)c1cccc(Cl)c1
EC50 [8]: > 150 µM (inactive) | EC50 [9]: 1.33 µM (active) | EC50 [10]: > 180 µM (inactive) | EC50 [11]: > 150 µM (inactive)

COC(=O)c1coc(-c2cnc(OC)nc2)n1
EC50 [7]: > 100 µM (inactive)

C[C@@H]1CCCCO[C@H](CN(C)C)[C@H](C)CN([C@@H](C)CO)C(=O)c2cc(NS(=O)(=O)c3ccc(Cl)cc3)ccc2O1
AC50 [12]: 1.71 µM (active)
